Results taken from patent publication US8795962B2, “Expression vectors based on modified ribosomal protein promoters and uses thereof in post-transcriptional assessment” (King Faisal Specialist Hospital and Research Center, priority 2008, dated 2014).
“Also recorded” adds a separate entry of the source.

What was measured:
[1] = system: EGFP reporter vectors under the transcriptional control of the ribosomal protein RPS30, RPS23I-M, or RPS30I-M1 sequences; experiment: EGFP reporter under ribosomal protein promoters with control stable 3′UTR, treated with inducers (FIG. 1B); assay type: cell-based, human; conditions: HEK293 cells, okadaic acid 100 nM or TNF-α 10 ng/ml, added about 20 hr after transfection
Method: (§1) B HEK293 cells in 96-well plates were transfected with 150 ng of EGFP reporter vectors that are under the transcriptional control of the ribosomal protein RPS30, RPS23I-M, or RPS30I-M1 sequences. The EGFP reporter contains control stable 3′UTR. After approximately 20 hr, the cells were treated with the following compounds: okadaic acid (100 nM) or TNF-α (10 ng/ml) to induce post-transcriptional induction, if any. High resolution images were obtained automatically by BD high-content imager. Quantitation was performed with our in-house ProXcell imaging algorithm.

[2] = system: EGFP reporter vector under the transcriptional control of the CMV promoter; experiment: EGFP reporter under CMV promoter, treated with inducers (FIG. 2); assay type: cell-based; conditions: HEK293 cells, TNF-α 10 ng/ml
Method: as §1, with “HEK293” for “B HEK293”, “CMV” for “ribosomal protein RPS30, RPS23I-M,”, “SV40 promoter.” for “RPS30I-M1 sequences. The EGFP reporter contains control stable 3′UTR.”, “induction,” for “induction, if any.”, “with” for “with our in-house”

[3] = system: EGFP reporter vector under the transcriptional control of the SV40 promoter; experiment: EGFP reporter under SV40 promoter, treated with inducers (FIG. 2); assay type: cell-based; conditions: HEK293 cells, TNF-α 10 ng/ml
Method: as §1, with “HEK293” for “B HEK293”, “CMV” for “ribosomal protein RPS30, RPS23I-M,”, “SV40 promoter.” for “RPS30I-M1 sequences. The EGFP reporter contains control stable 3′UTR.”, “induction,” for “induction, if any.”, “with” for “with our in-house”

[4] = system: RPS30I-M1-IL-8 3′UTR reporter; experiment: RPS30I-M1 EGFP reporter with IL-8 3′UTR (AU-rich elements), post-transcriptional induction (FIG. 3); assay type: cell-based, human; conditions: HEK293 cells, 3′UTR with 200 bases of IL-8 3′UTR; okadaic acid 100 nM
Method: as §1, with “Selective for post-transcriptional regulation in the RPS30I-M linked-reporter system. HEK293” for “B HEK293”, “protein RPS30I-M1.” for “protein RPS30, RPS23I-M, or RPS30I-M1 sequences.”, “contains either” for “contains”, “stable 3′UTR or 3′UTR which contain 200 bases of IL-8 3′UTR sequences known to contain mRNA destabilization elements, AU-rich elements.” for “stable 3′UTR.”, “or IL-α (3” for “or TNF-α (10”
The AU-rich regions, approximately 200 bases, of TNF-α and IL-8 3′UTR were cloned into the vector. Briefly, a 237 bp region (972-1209 nt: NM_000584, SEQ ID NO. 9) that belongs to the 1250 bp IL-8 3′UTR or 250 bases from TNF-α 3′UTR: (1200-1450 bp, NM_000594, SEQ ID NO. 10) were amplified by RT-PCR using specific primers that contains BamH1 and XbaI restriction sites. The PCR products were cut by BamH I and Xba I sequentially and followed by phenol extraction and ethanol precipitation. The purified cut PCR products were ligated into the EGFP expression vector that has bovine growth hormone 3′UTR that has BamH1 and XbaI sites. […]

[5] = system: control RPS30-3′UTR reporter; experiment: RPS30I-M1 EGFP reporter with control stable 3′UTR, post-transcriptional induction (FIG. 3); assay type: cell-based, human; conditions: HEK293 cells, okadaic acid 100 nM
Method: as §1, with “Selective for post-transcriptional regulation in the RPS30I-M linked-reporter system. HEK293” for “B HEK293”, “protein RPS30I-M1.” for “protein RPS30, RPS23I-M, or RPS30I-M1 sequences.”, “contains either” for “contains”, “stable 3′UTR or 3′UTR which contain 200 bases of IL-8 3′UTR sequences known to contain mRNA destabilization elements, AU-rich elements.” for “stable 3′UTR.”, “or IL-α (3” for “or TNF-α (10”
The RPS30I-M1 with control 3′UTR, RPS30I-M1 with IL-8 3′UTR, and RPS30I-M1 with TNF-α 3′UTR vectors were tested for use to assess post-transcriptional regulation. Transfected cells were stimulated with the following compounds, IL-α or okadaic acid. Any compound or modulators such as protein, expression vector, or small inhibitory RNA, or any other RNA vector can be tested for the post-transcriptional effects, i.e., induction or repression.

Compound	induction of EGFP reporter fluorescence [1]	transcriptional induction of EGFP reporter [2]	transcriptional induction of EGFP reporter [3]	induction of EGFP reporter fluorescence ([1]; listed as okdadaic acid)	post-transcriptional induction of EGFP reporter [4]	post-transcriptional induction of EGFP reporter [5]
TNF-α	no induction; also recorded: not transcriptionally inducible	respond to transcriptional induction	respond to transcriptional induction	–	–	–
C=C1[C@@H](O)[C@@H]2O[C@]3(CC[C@H](/C=C/[C@@H](C)[C@@H]4CC(C)=C[C@@]5(O[C@H](C[C@@](C)(O)C(=O)O)CC[C@H]5O)O4)O3)CC[C@H]2O[C@@H]1[C@@H](O)C[C@H](C)[C@H]1O[C@@]2(CCCCO2)CC[C@H]1C [okadaic acid]	not transcriptionally inducible	–	–	no induction	significantly increases	not
